Here are results for two compounds from publication doi:10.1101/2024.03.13.583470v1, “SARS-CoV-2 methyltransferase nsp10-16 in complex with natural and drug-like purine analogs for guiding structure-based drug discovery” (biorxiv, 2024).

Test [1] addresses T1, nsp10-16 (Severe acute respiratory syndrome coronavirus 2, UniProt P0DTD1).
T1 construct: gene rep
The experiment in a line: X-ray crystallography, soaking. It counts as binding. The following applies: SAM site, fully replaces SAM; 10 mM soak, pH 6.5.

For test [2], the target named is T1, nsp10-16. As to the kind of experiment: ITC or other biophysical method (nanoDSF, MST), not given. The class given is binding.

As for `Nc1ncnc2c1ncn2[C@@H]1O[C@H](CO)[C@@H](O)[C@H]1O` [adenosine], in test [1], the “X-ray crystallography, soaking” value is reported as “electron density is observed in the adenosine cavity while SAM is fully replaced”.

On to `C[S+](CC[C@H](N)C(=O)O)C[C@H]1O[C@@H](n2cnc3c(N)ncnc32)[C@H](O)[C@@H]1O` (some centres unmarked) [S-adenosyl methionine], for which, in test [2], the KD result is given as “measurable binding of the tested ligands within the investigated ligand concentrations applied, except for”.
